ChEMBL document CHEMBL5236669, “Identification of pyrimidinyl piperazines as non-iminosugar glucocerebrosidase (GCase) pharmacological chaperones” (Bioorg Med Chem Lett, 2023)
≈ marks a conversion by molar mass, not a printed value.

What was measured:
[1] = target: Lysosomal acid glucosylceramidase (Homo sapiens, UniProt P04062, N409S); test: Chaperone activity at GCase N370S GBA mutant in patient derived fibroblast cell using 4-methylumbelliferyl-beta-D-glucopyranoside as substrate assessed as substrate cleavage by measuring concentration required for maximal response incubated for 5 days by fluorescence based assay
[2] = Solubility of the compound in PBS; assay type: physicochemical
[3] = Metabolic stability in human liver microsomes assessed as intrinsic clearance; assay type: ADME, Microsome; settings: read-out: CLH
LLC-PK1 = test: Corrected flux ratio of permeability in pig LLC-PK1 cells overexpressing MDR1 to pig LLC-PK1 cells; assay type: ADME, cell-based, Sus scrofa

Sequence of Lysosomal acid glucosylceramidase (P04062 40-536 N409S limits assumed): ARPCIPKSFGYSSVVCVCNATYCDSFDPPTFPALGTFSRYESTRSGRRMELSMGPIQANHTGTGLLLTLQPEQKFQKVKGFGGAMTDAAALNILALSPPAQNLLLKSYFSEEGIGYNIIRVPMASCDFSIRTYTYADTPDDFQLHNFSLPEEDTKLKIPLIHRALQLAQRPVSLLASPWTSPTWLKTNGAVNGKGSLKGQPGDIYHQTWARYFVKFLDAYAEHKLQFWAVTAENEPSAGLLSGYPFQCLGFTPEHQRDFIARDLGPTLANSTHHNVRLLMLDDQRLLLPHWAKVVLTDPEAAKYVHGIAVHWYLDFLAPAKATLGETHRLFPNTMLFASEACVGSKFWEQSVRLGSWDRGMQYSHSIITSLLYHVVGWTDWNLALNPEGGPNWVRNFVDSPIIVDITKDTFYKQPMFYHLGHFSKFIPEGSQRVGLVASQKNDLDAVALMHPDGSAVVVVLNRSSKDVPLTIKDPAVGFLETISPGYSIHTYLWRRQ

Row | SMILES | EC50 [1] [nM] | further results
1 | Cc1cc(N2CCN(C(=O)c3ccncc3)CC2)nc(N2CCCC2)n1 | 6800 | 
2 | Cc1cc(N2CC3(CN(C(=O)c4ccccc4C)C3)C2)nc(N2CCCC2)n1 | 2100 | 
3 | Cc1cc(N2CCN(C(=O)c3ccccc3C)CC2)nc(N2CCC2)n1 | 440 | 
4 | CC(C)(C)c1ccc(C(=O)N2CCN(c3nc(N4CCCC4)nc4c3CCC4)CC2)cc1 |  | solubility [2]: 2 µM (≈ 0.867 µg/mL)
5 | Cc1cc(N2CCN(C(=O)c3ccccc3C)CC2)nc(N(C)C)n1 | 630 | 
6 | Cc1cc(N2CC3CN(C(=O)c4ccccc4C)CC3C2)nc(N2CCCC2)n1 (configuration not stated) | 660 | 
7 | Cc1ccccc1C(=O)N1CCN(c2cc(C(F)(F)F)nc(N3CCCC3)n2)CC1 | > 25000 | 
8 | Cc1cc(N2CCN(C(=O)c3ccc(C(C)(C)C)cc3)CC2)nc(N2CCCC2)n1 |  | solubility [2]: 68 µM (≈ 27.7 µg/mL); CLint scaled [3]: 0.172 mL/min/kg
9 | Cc1cc(N2CCN(C(=O)Cc3ccccc3)CC2)nc(N2CCCC2)n1 | 460 | 
10 | Cc1cc(N2CCN(C(=O)c3ccccc3C)CC2)nc(N2CCC(F)(F)C2)n1 | 1400 | 
11 | Cc1cc(N2CCN(C(=O)c3ccccc3C)CC2)nc(N2CCCCC2)n1 | 170 | 
12 | CC(=O)N1CCN(c2cc(C)nc(N3CCCC3)n2)CC1 | 7100 | 
13 | Cc1cccc(C(=O)N2CCN(c3cc(C)nc(N4CCCC4)n3)CC2)c1 | 130 | 
14 | Cc1cc(N2CCN(C(=O)c3ccccc3F)CC2)nc(N2CCCC2)n1 | 170 | 
15 | Cc1ccccc1C(=O)N1CCN(c2cc(CO)nc(N3CCCC3)n2)CC1 | 220 | 
16 | CC(C)(C)c1ccc(C(=O)N2CCN(c3nc(N4CCCC4)nc4c3COC4)CC2)cc1 | 150 | 
17 | Cc1cc(N2CCN(C(=O)C3CCCCC3)CC2)nc(N2CCCC2)n1 | 360 | 
18 | Cc1ccccc1C(=O)N1CCN(c2nc(N3CCCC3)nc3c2COC3)CC1 | 540 | 
19 | Cc1cc(N2CCN(C(=O)c3ccccc3C)CC2)nc(N2CCOCC2)n1 | 5200 | 
20 | Cc1ccccc1C(=O)N1CCN(c2nc(N3CCCC3)nc(C)c2C)CC1 | 250 | 
21 | Cc1cc(N2CCN(C(=O)c3cnccn3)CC2)nc(N2CCCC2)n1 | 5300 | 
22 | Cc1ccccc1C(=O)N1CCN(c2nc(N3CCCC3)nc3c2COCC3)CC1 | 410 | 
23 | Cc1ccccc1C(=O)N1CCN(c2ccnc(N3CCCC3)n2)CC1 | 680 | 
24 | Cc1cc(N2CCN(C(=O)c3ccccc3C)CC2)nc(C(C)C)n1 | 150 | 
25 | Cc1cc(N2CCCN(C(=O)c3ccccc3C)CC2)nc(N2CCCC2)n1 | 1800 | 

Further compounds by falling EC50 [1], results first:

Row | EC50 [1] [nM] | SMILES | further results
26 | 120 | Cc1ccccc1C(=O)N1CCN(c2nc(N3CCCC3)ncc2C)CC1 | 
27 | 100 | Cc1cc(N2CCN(C(=O)c3ccccc3C(F)(F)F)CC2)nc(N2CCCC2)n1 | 
28 | 90 | Cc1cc(N2CCN(C(=O)c3cc(-c4ccccc4)nc4c3cnn4C(C)C)CC2)nc(C(C)C)n1 | solubility [2]: 3 µM (≈ 1.45 µg/mL); CLint scaled [3]: 0.341 mL/min/kg; Ratio (LLC-PK1): 1.26
29 | 79 | Cc1ccccc1C(=O)N1CCN(c2nc(N3CCCC3)nc3ccccc23)CC1 | solubility [2]: 85 µM (≈ 34.1 µg/mL); CLint scaled [3]: 0.789 mL/min/kg; Ratio (LLC-PK1): 2.19
30 | 75 | Cc1cc(N2CCN(C(=O)c3ccccc3C)CC2)nc(N2CCCC2)n1 | solubility [2]: 94 µM (≈ 34.4 µg/mL); CLint scaled [3]: 0.104 mL/min/kg; Ratio (LLC-PK1): 1.38
31 | 72 | Cc1cc(N2CCN(C(=O)c3ccccc3)CC2)nc(N2CCCC2)n1 | 
32 | 70 | Cc1ccc(C(=O)N2CCN(c3cc(C)nc(N4CCCC4)n3)CC2)cc1 | 
33 | 63 | Cc1cc(N2CCN(C(=O)c3ccccc3Cl)CC2)nc(N2CCCC2)n1 | 
34 | 58 | Cc1cc(N2CCN(C(=O)c3ccc(-c4ccccc4)cc3)CC2)nc(N2CCCC2)n1 | 
35 | 40 | Cc1cc(N2CCN(C(=O)c3ccc(Cl)cc3)CC2)nc(N2CCCC2)n1 | 
36 | 30 | Cc1ccccc1C(=O)N1CCN(c2nc(N3CCCC3)nc3c2CCC3)CC1 | 
37 | 29 | Cc1cc(N2CCN(C(=O)c3ccccc3C)CC2)nc(N2CCCCCC2)n1 | 
